Reference: ChEMBL document CHEMBL5380830, “Development and Therapeutic Implications of Tyrosine Kinase 2 Inhibitors” (J Med Chem, 2023)

Legend:
[1] = molecular target: T1, Non-receptor tyrosine-protein kinase TYK2 (Homo sapiens, UniProt P29597); experiment: Inhibition of TYK2 JH2 (unknown origin) by scintillation proximity assay
[2] = molecular target: T1, Non-receptor tyrosine-protein kinase TYK2; experiment: Inhibition of TYK2 JH2 in human TF-1 cells assessed as reduction of IFNalpha induced STAT1 phosphorylation; type: cell-based
[3] = Inhibition of IL-23 induced STAT phosphorylation in HEK293 cells by Western blotting analysis; type: cell-based; conditions: Homo sapiens
[4] = Inhibition of IFNalpha induced STAT phosphorylation in HEK293 cells by Western blotting analysis; type: cell-based; conditions: Homo sapiens
[5] = molecular target: T2, Tyrosine-protein kinase JAK1 (Homo sapiens, UniProt P23458); experiment: Inhibition of human recombinant JAK1 preincubated for 15 mins followed by substrate addition measured after 60 mins by HTRF assay
T2 sequence (P23458 whole entry): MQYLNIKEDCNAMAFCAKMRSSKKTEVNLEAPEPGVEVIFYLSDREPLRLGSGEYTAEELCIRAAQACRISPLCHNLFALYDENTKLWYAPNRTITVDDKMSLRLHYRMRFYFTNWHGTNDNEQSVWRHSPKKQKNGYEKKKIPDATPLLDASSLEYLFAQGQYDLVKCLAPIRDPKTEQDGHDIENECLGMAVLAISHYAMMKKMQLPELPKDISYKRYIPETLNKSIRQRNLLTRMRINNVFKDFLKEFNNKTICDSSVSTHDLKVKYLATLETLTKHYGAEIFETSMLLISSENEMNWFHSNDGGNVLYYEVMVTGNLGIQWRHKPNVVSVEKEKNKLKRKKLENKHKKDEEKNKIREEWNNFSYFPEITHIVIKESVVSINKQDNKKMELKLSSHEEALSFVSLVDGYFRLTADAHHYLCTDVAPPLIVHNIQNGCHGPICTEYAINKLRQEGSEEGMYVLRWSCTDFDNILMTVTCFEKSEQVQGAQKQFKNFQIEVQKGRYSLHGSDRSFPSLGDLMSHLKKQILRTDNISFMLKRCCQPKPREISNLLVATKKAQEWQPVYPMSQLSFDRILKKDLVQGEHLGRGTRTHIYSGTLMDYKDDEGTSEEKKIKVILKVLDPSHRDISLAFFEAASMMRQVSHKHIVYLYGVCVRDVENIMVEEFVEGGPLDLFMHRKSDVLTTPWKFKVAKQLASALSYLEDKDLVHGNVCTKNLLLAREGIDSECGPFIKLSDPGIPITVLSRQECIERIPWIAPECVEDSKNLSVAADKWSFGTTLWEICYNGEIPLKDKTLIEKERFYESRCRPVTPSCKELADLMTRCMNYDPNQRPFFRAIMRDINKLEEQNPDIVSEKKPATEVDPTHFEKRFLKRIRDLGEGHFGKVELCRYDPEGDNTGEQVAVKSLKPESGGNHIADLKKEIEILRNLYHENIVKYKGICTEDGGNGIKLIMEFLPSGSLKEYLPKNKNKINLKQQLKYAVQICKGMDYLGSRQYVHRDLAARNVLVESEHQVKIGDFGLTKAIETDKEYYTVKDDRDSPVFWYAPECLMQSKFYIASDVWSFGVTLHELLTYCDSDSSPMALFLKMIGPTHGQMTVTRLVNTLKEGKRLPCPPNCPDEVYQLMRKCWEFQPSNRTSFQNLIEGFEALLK

[6] = molecular target: T3, Tyrosine-protein kinase JAK2 (Homo sapiens, UniProt O60674); experiment: Inhibition of human recombinant JAK2 preincubated for 15 mins followed by substrate addition measured after 60 mins by HTRF assay
T3 sequence (O60674 whole entry): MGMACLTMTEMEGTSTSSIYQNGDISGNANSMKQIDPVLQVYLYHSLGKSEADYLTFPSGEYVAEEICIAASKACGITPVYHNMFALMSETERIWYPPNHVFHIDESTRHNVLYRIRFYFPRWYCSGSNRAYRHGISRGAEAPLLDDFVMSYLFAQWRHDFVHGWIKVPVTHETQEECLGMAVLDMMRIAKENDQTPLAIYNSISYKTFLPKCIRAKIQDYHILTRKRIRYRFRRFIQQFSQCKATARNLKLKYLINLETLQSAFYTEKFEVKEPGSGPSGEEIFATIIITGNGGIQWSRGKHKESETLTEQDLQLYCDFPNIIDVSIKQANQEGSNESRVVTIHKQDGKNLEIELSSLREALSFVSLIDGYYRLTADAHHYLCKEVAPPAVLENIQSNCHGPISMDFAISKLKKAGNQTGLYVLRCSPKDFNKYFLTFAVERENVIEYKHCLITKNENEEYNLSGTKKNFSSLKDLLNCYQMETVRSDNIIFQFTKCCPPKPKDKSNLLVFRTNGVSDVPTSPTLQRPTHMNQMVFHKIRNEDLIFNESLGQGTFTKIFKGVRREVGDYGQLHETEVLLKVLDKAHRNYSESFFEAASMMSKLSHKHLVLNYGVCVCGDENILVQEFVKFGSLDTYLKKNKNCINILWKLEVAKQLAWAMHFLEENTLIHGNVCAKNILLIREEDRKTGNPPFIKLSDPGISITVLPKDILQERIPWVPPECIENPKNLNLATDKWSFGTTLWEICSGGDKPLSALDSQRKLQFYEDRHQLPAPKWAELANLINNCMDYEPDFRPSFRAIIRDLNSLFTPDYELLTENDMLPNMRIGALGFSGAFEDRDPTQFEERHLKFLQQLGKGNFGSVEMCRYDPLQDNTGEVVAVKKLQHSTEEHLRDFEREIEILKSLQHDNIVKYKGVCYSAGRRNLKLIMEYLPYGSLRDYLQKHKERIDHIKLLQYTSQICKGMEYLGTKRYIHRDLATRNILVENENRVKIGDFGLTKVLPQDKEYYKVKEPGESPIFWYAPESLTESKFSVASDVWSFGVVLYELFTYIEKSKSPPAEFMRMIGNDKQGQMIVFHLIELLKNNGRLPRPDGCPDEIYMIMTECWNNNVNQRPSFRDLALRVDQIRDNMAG

[7] = molecular target: T4, Tyrosine-protein kinase JAK3 (Homo sapiens, UniProt P52333); experiment: Inhibition of human recombinant JAK3 preincubated for 15 mins followed by substrate addition measured after 60 mins by HTRF assay
T4 sequence (P52333 whole entry): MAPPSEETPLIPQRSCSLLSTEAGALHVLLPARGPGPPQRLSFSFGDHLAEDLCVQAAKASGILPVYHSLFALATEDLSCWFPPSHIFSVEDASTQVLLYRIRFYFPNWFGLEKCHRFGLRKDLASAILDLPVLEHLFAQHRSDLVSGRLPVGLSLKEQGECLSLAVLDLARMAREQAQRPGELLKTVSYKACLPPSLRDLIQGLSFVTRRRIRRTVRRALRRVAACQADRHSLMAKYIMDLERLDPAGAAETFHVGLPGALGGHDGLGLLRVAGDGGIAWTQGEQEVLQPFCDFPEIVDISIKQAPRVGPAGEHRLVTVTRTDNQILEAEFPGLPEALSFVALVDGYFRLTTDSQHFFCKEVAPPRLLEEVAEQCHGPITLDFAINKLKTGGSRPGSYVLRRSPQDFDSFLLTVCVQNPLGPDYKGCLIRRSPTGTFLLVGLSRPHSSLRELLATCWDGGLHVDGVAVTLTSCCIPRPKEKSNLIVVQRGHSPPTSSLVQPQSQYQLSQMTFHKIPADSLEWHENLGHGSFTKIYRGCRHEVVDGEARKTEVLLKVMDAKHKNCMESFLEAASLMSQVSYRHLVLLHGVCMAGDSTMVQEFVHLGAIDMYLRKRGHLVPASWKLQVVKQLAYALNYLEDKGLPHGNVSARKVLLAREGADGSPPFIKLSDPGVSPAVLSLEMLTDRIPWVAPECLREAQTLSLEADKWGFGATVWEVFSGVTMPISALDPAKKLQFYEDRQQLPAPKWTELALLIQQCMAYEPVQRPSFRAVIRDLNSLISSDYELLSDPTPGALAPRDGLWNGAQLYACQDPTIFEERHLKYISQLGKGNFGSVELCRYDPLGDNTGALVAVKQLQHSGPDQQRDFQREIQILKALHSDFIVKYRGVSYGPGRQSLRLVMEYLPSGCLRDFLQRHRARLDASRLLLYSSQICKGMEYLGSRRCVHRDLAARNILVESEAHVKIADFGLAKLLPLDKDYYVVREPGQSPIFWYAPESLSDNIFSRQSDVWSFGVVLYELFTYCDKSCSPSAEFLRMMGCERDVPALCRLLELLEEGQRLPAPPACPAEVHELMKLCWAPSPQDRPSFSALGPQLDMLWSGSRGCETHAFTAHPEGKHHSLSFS

[8] = molecular target: T1, Non-receptor tyrosine-protein kinase TYK2; experiment: Inhibition of human recombinant TYK2 preincubated for 15 mins followed by substrate addition measured after 60 mins by HTRF assay
JAK2/TYK2 [9] = molecular target: T5, JAK2/TYK2 (Homo sapiens, UniProt O60674+P29597); experiment: Inhibition of JAK2/TYK2 signal transduction pathway in human NK92 cells assessed as […] induced IFNgamma expression incubated for 24 hrs by ELISA assay; type: cell-based
T5 sequence (O60674 whole entry): as the sequence (O60674 whole entry) above
T5 sequence (P29597 whole entry): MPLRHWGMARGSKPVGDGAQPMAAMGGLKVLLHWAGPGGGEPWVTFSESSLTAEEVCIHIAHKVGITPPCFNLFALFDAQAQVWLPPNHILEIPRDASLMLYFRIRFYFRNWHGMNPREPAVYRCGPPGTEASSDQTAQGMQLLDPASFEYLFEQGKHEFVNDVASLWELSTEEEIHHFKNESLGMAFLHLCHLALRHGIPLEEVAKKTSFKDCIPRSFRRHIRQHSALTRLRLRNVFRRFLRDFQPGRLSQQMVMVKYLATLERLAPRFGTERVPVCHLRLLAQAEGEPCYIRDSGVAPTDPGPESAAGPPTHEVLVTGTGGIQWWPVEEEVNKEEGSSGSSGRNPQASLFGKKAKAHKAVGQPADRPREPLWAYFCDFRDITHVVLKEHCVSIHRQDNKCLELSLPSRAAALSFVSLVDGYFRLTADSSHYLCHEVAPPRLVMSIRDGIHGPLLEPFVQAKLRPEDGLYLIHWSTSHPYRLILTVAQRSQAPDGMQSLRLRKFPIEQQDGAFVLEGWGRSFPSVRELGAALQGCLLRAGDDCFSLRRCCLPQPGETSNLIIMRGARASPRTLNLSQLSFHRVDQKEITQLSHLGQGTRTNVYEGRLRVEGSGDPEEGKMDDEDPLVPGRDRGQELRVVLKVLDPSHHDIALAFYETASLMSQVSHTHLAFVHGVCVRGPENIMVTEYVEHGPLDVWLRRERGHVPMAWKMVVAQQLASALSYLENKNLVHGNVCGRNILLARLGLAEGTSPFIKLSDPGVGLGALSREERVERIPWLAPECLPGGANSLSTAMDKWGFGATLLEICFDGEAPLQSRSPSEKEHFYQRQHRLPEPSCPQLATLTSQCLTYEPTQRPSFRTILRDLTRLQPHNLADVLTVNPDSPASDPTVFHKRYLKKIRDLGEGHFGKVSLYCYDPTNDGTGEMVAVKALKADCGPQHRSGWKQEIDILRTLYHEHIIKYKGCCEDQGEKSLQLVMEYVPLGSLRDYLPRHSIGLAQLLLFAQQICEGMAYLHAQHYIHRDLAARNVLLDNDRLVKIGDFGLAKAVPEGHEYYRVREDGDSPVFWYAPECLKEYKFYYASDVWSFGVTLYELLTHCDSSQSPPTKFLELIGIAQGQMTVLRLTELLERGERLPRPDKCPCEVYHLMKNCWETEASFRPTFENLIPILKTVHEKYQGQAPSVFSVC

[10] = molecular target: T2, Tyrosine-protein kinase JAK1; experiment: Binding affinity to JAK1 JH2 (unknown origin)
[11] = molecular target: T1, Non-receptor tyrosine-protein kinase TYK2; experiment: Binding affinity to TYK2 JH2 (unknown origin)
[12] = molecular target: T3, Tyrosine-protein kinase JAK2; experiment: Binding affinity to JAK2 JH1 (unknown origin)
[13] = molecular target: T1, Non-receptor tyrosine-protein kinase TYK2; experiment: Inhibition of TYK2 signal transduction pathway in human PBMC cells assessed as IFNalpha induced p-STAT5 level; type: cell-based
[14] = molecular target: T1, Non-receptor tyrosine-protein kinase TYK2; experiment: Inhibition of TYK2 signal transduction pathway in human PBMC cells assessed as reduction in GM-CSF induced p-STAT5 level; type: cell-based
[15] = molecular target: T1, Non-receptor tyrosine-protein kinase TYK2; experiment: Inhibition of TYK2 signal transduction pathway in human PBMC cells assessed as IL-2 induced p-STAT5 level; type: cell-based
JAK2/TYK2 [16] = molecular target: T5, JAK2/TYK2; experiment: Inhibition of JAK2/TYK2 signal transduction pathway in human NK92 cells assessed as IL-12 induced STAT4 phosphorylation; type: cell-based
[17] = molecular target: T1, Non-receptor tyrosine-protein kinase TYK2; experiment: Inhibition of TYK2 signal transduction pathway in human TF-1 cells assessed as reduction in GM-CSF induced p-STAT5 level; type: cell-based
[18] = Half life in mouse at 10 mg/kg, po measured upto 24 hrs by LC-MS/MS analysis; type: ADME, organism-based; conditions: in vivo
[19] = Cmax in mouse at 10 mg/kg, po measured upto 24 hrs by LC-MS/MS analysis; type: ADME, organism-based; design: time < 24 hrs, dose 10 mg/kg, route po; conditions: in vivo
[20] = AUClast in mouse at 10 mg/kg, po measured upto 24 hrs by LC-MS/MS analysis; type: ADME, organism-based; design: dose 10 mg/kg, time < 24 hrs, route po; conditions: in vivo
[21] = Inhibition of IFNalpha induced STAT phosphorylation in human whole blood by fluorescence based analysis; type: tissue-based
[22] = molecular target: T4, Tyrosine-protein kinase JAK3; experiment: Inhibition of JAK3 (unknown origin) using ULight - JAK (Tyr1023) substrate incubated for 60 mins in presence of ATP by envision plate reader based analysis
[23] = molecular target: T1, Non-receptor tyrosine-protein kinase TYK2; experiment: Binding affinity to human wild-type partial length TYK2 JH2 (G556 to D888 residues) expressed in mammalian expression system by KINOMEscan assay

T1 sequence (P29597 whole entry): as above

CNc1cc(Nc2cccn(-c3ccccn3)c2=O)nc2c(C(=O)N[C@@H]3CCN(C)C3=O)cnn12
IC50 [1]: < 254 nM | IC50 [2]: 112 nM

O=C(Nc1cc2c(cn1)c(=O)[nH]n2-c1ccccc1)C1CC1
IC50 [3]: < 10000 nM | IC50 [4]: < 10000 nM

NC(=O)c1nnc(-c2c(F)cccc2F)cc1Nc1ccc(N2CCOCC2=O)cn1
IC50 [5]: 81 nM | IC50 [6]: 5 nM | IC50 [7]: 7 nM | IC50 [8]: 0.08 nM | IC50 (JAK2/TYK2 [9]): 0.3 nM

CCOc1cccc(Nc2cc(NC)n3ncc(C(=O)N[C@@H]4CCN(C)C4=O)c3n2)n1
IC50 [1]: < 254 nM | IC50 [2]: 38 nM

CNc1cc(Nc2ccccc2OC)nc2c(C(=O)N[C@@H]3CCN(C)C3=O)cnn12
IC50 [2]: 8 nM

[2H]C([2H])([2H])NC(=O)c1nnc(NC(=O)C2CC2)cc1Nc1cccc2c1N(C)Cc1cn(C)nc1-2
IC50 [3]: < 30 nM | IC50 [4]: < 30 nM

[2H]C([2H])([2H])CC(=O)c1cnc(Nc2cccc(C#N)n2)cc1Nc1cccc(-c2ncn(C([2H])([2H])[2H])n2)c1OC
Kd [10]: ≤ 100 nM | Kd [11]: ≤ 10000 pM | Kd [12]: > 10 µM | IC50 [13]: < 100 nM | IC50 [14]: ≤ 1000 nM | IC50 [15]: ≤ 100 nM

COc1cc(Nc2cc(NC(C)=O)ncc2-c2ccc(C(C)(C)O)cn2)nc(S(C)(=O)=O)c1
IC50 (JAK2/TYK2 [16]): 1 nM | IC50 [17]: > 10 µM | half-life [18]: 124 min | Cmax [19]: 8.73 ng/mL | AUC(0-t) at 24 h [20]: 19.3 ng·h/mL

NC(=O)c1nnc(-c2c(F)cccc2Cl)cc1Nc1ccc(N2CCOCC2)cc1
IC50 [5]: 37 nM | IC50 [6]: 9 nM | IC50 [7]: 11 nM | IC50 [8]: 0.2 nM | IC50 (JAK2/TYK2 [9]): 0.4 nM

[2H]C([2H])([2H])NC(=O)c1nnc(NC(=O)C2CC2)cc1Nc1cccc(-c2noc(CN3CCN(S(C)(=O)=O)CC3)n2)c1OC
IC50 [21]: 30 nM

[2H]C([2H])([2H])NC(=O)c1nnc(NC(=O)C2CC2)cc1Nc1cccc2c1N(C)Cc1nc(C)nn1-2
IC50 [3]: < 30 nM | IC50 [4]: < 30 nM

[2H]C([2H])([2H])NC(=O)c1nnc(NC(=O)[C@H]2CC23CC3)cc1Nc1ncccc1S(C)(=O)=O
IC50 [21]: 47 nM

[2H]C([2H])([2H])NC(=O)c1nnc(NC(=O)C2CC2)cc1Nc1cccc(-c2nc(CN3CCN(S(C)(=O)=O)CC3)no2)c1OC
IC50 [21]: 30 nM

[2H]C([2H])([2H])NC(=O)c1cnc(Nc2cc(C3CC3)ncn2)cc1Nc1ncccc1S(C)(=O)=O
IC50 [21]: 9 nM

NC(=O)c1nnc(-c2c(F)cccc2F)cc1Nc1ccc(N2CCOCC2)cn1
IC50 [5]: 38 nM | IC50 [6]: 4 nM | IC50 [7]: 1 nM | IC50 [8]: < 0.06 nM | IC50 (JAK2/TYK2 [9]): 0.08 nM

[2H]C([2H])([2H])CC(=O)c1cnc(NC(=O)C2CC2)cc1Nc1nccc(-c2ncn(C([2H])([2H])[2H])n2)c1OC
Kd [10]: ≤ 100 nM | Kd [11]: ≤ 10000 pM | Kd [12]: ≤ 1 µM | IC50 [13]: < 100 nM | IC50 [14]: > 10000 nM | IC50 [15]: ≤ 1000 nM

[2H]C([2H])([2H])NC(=O)c1nnc(Nc2ccc(F)cn2)cc1Nc1cccc2c1N(C)Cc1n[nH]c(=O)n1-2
IC50 [3]: < 30 nM | IC50 [4]: < 30 nM

[2H]C([2H])([2H])NC(=O)c1nnc(NC(=O)C2CC2)cc1Nc1cccc2c1N(C)Cc1cccnc1-2
IC50 [3]: < 30 nM | IC50 [4]: < 30 nM

CNc1cc2nn3c(cnc13)C(=O)N[C@H](C)COCc1ccc(OC)c(c1)N2
Kd [10]: 430 nM | Kd [11]: 2 pM | Kd [12]: 7.3 µM | IC50 [13]: 1.2 nM | IC50 [15]: > 10000 nM

COc1cc(Nc2cc(NC(C)=O)ncc2-c2ccc(F)cn2)nc(S(C)(=O)=O)c1
IC50 (JAK2/TYK2 [16]): 1.82 nM | IC50 [17]: > 10 µM | half-life [18]: 88.8 min | Cmax [19]: 911 ng/mL | AUC(0-t) at 24 h [20]: 2100 ng·h/mL

[2H]C([2H])([2H])NC(=O)c1nnc(NC(=O)C2CC2)cc1Nc1cccc(-c2ncc(C(=O)N3CCN(C4CCCC4)CC3)s2)c1OC
IC50 [21]: 40 nM

COC(=O)c1nnc(NC(=O)C2CC2)cc1Nc1cccc2c1N(C)Cc1cn(C)nc1-2
IC50 [3]: < 30 nM | IC50 [4]: < 30 nM

Cn1cc(-c2cn3ncnc3c(-c3ccn([C@]4(CC#N)C[C@H](C#N)C4)c3)n2)cn1
IC50 [22]: > 5 µM

[2H]C([2H])([2H])n1nnc2c3cc(cc21)CO[C@@H]1CCC[C@H]1NC(=O)c1cnc2c(NC)cc(nn12)N3
Kd [11]: 2 pM | IC50 [13]: 1.7 nM

[2H]C([2H])([2H])NC(=O)c1nnc(NC(=O)C2CC2)cc1Nc1cccc(-c2noc(CN3CCN(S(C)(=N)=O)CC3)n2)c1OC (stereo not given)
Kd [23]: 8 pM

COc1cc(Nc2cc(NC(C)=O)ncc2-c2ccc3c(n2)OCC(C)(C)O3)nc(S(C)(=O)=O)c1
IC50 (JAK2/TYK2 [16]): 0.053 nM | IC50 [17]: 1.82 µM | half-life [18]: 181 min | Cmax [19]: 2820 ng/mL | AUC(0-t) at 24 h [20]: 16200 ng·h/mL

[2H]C([2H])([2H])CC(=O)c1cnc(Nc2cccc(C#N)n2)cc1Nc1nccc(-c2ncn(C([2H])([2H])[2H])n2)c1OC
Kd [10]: ≤ 100 nM | Kd [11]: ≤ 10000 pM | Kd [12]: > 10 µM | IC50 [13]: < 100 nM | IC50 [14]: ≤ 1000 nM | IC50 [15]: ≤ 100 nM

[2H]C([2H])([2H])NC(=O)c1nnc(NC(=O)C2CC2)cc1Nc1cccc(-n2cc3c(n2)CN(S(C)(=N)=O)C3)c1OC (stereo not given)
Kd [23]: 9 pM

[2H]C([2H])([2H])NC(=O)c1nnc(NC(=O)C2CC2)cc1Nc1cccc2c1N(C)Cc1cn(C([2H])([2H])[2H])nc1-2
IC50 [3]: < 30 nM | IC50 [4]: < 30 nM

CNc1cc(Nc2cccc3c2OCCC3)nc2c(C(=O)N[C@@H]3CCN(C)C3=O)cnn12
IC50 [1]: < 254 nM | IC50 [2]: 7 nM

[2H]C([2H])([2H])NC(=O)c1nnc(Nc2ccc(C(C)(C)O)cn2)cc1Nc1nc(C)ccc1S(C)(=O)=O
IC50 [21]: 6 nM
